What was measured:
Format in all cases: toxicity, cell-based
HEK-293T = assay: Incucyte cell viability with HEK293T; details: human, 10 µM, compound concentration 10 uM
Fibroblast = assay: Incucyte cell viability with human fibroblast; details: 10 µM, compound concentration 10 uM
U2OS = assay: Incucyte cell viability with U2OS; details: human, 10 µM, compound concentration 10 uM
Note: unitless GR value; below 1 slowed growth and below 0 cell loss.

## C=CC(=O)Nc1ccc(C(=O)Nc2n[nH]c3c2CN(C(=O)N[C@H](CN(C)C)c2ccccc2)C3(C)C)cc1
HEK-293T; 0 h, replicate number 1
  Growth Rate: -0.5
HEK-293T; 6 h, replicate number 1
  Growth Rate: 0.11
HEK-293T; 6 h, replicate number 2
  Growth Rate: -0.51
HEK-293T; 12 h, replicate number 1
  Growth Rate: 0.02
HEK-293T; 12 h, replicate number 2
  Growth Rate: -0.3
HEK-293T; 18 h, replicate number 1
  Growth Rate: 0.02
HEK-293T; 18 h, replicate number 2
  Growth Rate: -0.27
HEK-293T; 24 h, replicate number 1
  Growth Rate: 0.03
HEK-293T; 24 h, replicate number 2
  Growth Rate: -0.16
Fibroblast; 0 h, replicate number 2
  Growth Rate: -0.72
Fibroblast; 6 h, replicate number 2
  Growth Rate: 0.71
Fibroblast; 12 h, replicate number 1
  Growth Rate: 0.56
Fibroblast; 12 h, replicate number 2
  Growth Rate: 0.45
Fibroblast; 18 h, replicate number 1
  Growth Rate: 0.18
Fibroblast; 18 h, replicate number 2
  Growth Rate: 0.06
Fibroblast; 24 h, replicate number 1
  Growth Rate: 0.19
Fibroblast; 24 h, replicate number 2
  Growth Rate: -0.02
U2OS; 0 h, replicate number 1
  Growth Rate: -1
U2OS; 6 h, replicate number 2
  Growth Rate: 1
U2OS; 12 h, replicate number 2
  Growth Rate: -0.41
U2OS; 18 h, replicate number 1
  Growth Rate: 0.84
U2OS; 18 h, replicate number 2
  Growth Rate: 0.97
U2OS; 24 h, replicate number 1
  Growth Rate: 0.76

## CC(C)S(=O)(=O)c1ccccc1Nc1nc(N[C@@H]2CCCN(CCCCCCCNC(=O)COc3cccc4c3C(=O)N(C3CCC(=O)NC3=O)C4=O)C2)ncc1Cl (stereo partly specified)
HEK-293T; 0 h, replicate number 1
  Growth Rate: -1
HEK-293T; 6 h, replicate number 1
  Growth Rate: -0.44
HEK-293T; 6 h, replicate number 2
  Growth Rate: -0.73
HEK-293T; 12 h, replicate number 1
  Growth Rate: -0.41
HEK-293T; 12 h, replicate number 2
  Growth Rate: -0.59
HEK-293T; 18 h, replicate number 1
  Growth Rate: -0.31
HEK-293T; 18 h, replicate number 2
  Growth Rate: -0.49
HEK-293T; 24 h, replicate number 1
  Growth Rate: -0.24
HEK-293T; 24 h, replicate number 2
  Growth Rate: -0.38
Fibroblast; 0 h, replicate number 1
  Growth Rate: -1
Fibroblast; 6 h, replicate number 1
  Growth Rate: -0.22
Fibroblast; 6 h, replicate number 2
  Growth Rate: 0.14
Fibroblast; 12 h, replicate number 1
  Growth Rate: -0.39
Fibroblast; 12 h, replicate number 2
  Growth Rate: -0.49
Fibroblast; 18 h, replicate number 1
  Growth Rate: -0.33
Fibroblast; 18 h, replicate number 2
  Growth Rate: -0.45
Fibroblast; 24 h, replicate number 1
  Growth Rate: -0.23
Fibroblast; 24 h, replicate number 2
  Growth Rate: -0.45
U2OS; 0 h, replicate number 1
  Growth Rate: -1
U2OS; 6 h, replicate number 1
  Growth Rate: 0.86
U2OS; 12 h, replicate number 1
  Growth Rate: 0.25
U2OS; 12 h, replicate number 2
  Growth Rate: 0.57
U2OS; 18 h, replicate number 1
  Growth Rate: 0.03
U2OS; 18 h, replicate number 2
  Growth Rate: 0.15
U2OS; 24 h, replicate number 1
  Growth Rate: -0.23
U2OS; 24 h, replicate number 2
  Growth Rate: 0.04

## Cn1cc(-n2cnc3c(NCc4nc5cc(Cl)c(Cl)cc5[nH]4)nc(N4CCOCC4)nc32)cn1
HEK-293T; 0 h, replicate number 1
  Growth Rate: -0.86
HEK-293T; 0 h, replicate number 2
  Growth Rate: 0.65
HEK-293T; 6 h, replicate number 1
  Growth Rate: -0.17
HEK-293T; 6 h, replicate number 2
  Growth Rate: -0.51
HEK-293T; 12 h, replicate number 1
  Growth Rate: -0.21
HEK-293T; 12 h, replicate number 2
  Growth Rate: -0.56
HEK-293T; 18 h, replicate number 1
  Growth Rate: -0.23
HEK-293T; 18 h, replicate number 2
  Growth Rate: -0.48
HEK-293T; 24 h, replicate number 1
  Growth Rate: -0.18
HEK-293T; 24 h, replicate number 2
  Growth Rate: -0.36
Fibroblast; 0 h, replicate number 1
  Growth Rate: -1
Fibroblast; 0 h, replicate number 2
  Growth Rate: -0.31
Fibroblast; 6 h, replicate number 1
  Growth Rate: 0.08
Fibroblast; 6 h, replicate number 2
  Growth Rate: -0.32
Fibroblast; 12 h, replicate number 1
  Growth Rate: 0.37
Fibroblast; 12 h, replicate number 2
  Growth Rate: -0.22
Fibroblast; 18 h, replicate number 1
  Growth Rate: 0.46
Fibroblast; 18 h, replicate number 2
  Growth Rate: -0.06
Fibroblast; 24 h, replicate number 1
  Growth Rate: 0.54
Fibroblast; 24 h, replicate number 2
  Growth Rate: 0
U2OS; 0 h, replicate number 1
  Growth Rate: -0.99
U2OS; 0 h, replicate number 2
  Growth Rate: -0.97
U2OS; 6 h, replicate number 2
  Growth Rate: -0.74
U2OS; 12 h, replicate number 1
  Growth Rate: 0.64
U2OS; 12 h, replicate number 2
  Growth Rate: -0.72
U2OS; 18 h, replicate number 1
  Growth Rate: 0.1
U2OS; 18 h, replicate number 2
  Growth Rate: -0.54
U2OS; 24 h, replicate number 1
  Growth Rate: -0.09
U2OS; 24 h, replicate number 2
  Growth Rate: -0.53

## O=C1Nc2nc(-c3c(O)cccc3OCC3CC3)cc([C@@H]3CCCNC3)c2CO1
HEK-293T; 0 h, replicate number 1
  Growth Rate: 0.88
HEK-293T; 0 h, replicate number 2
  Growth Rate: -0.36
HEK-293T; 6 h, replicate number 1
  Growth Rate: 0.72
HEK-293T; 6 h, replicate number 2
  Growth Rate: 0.83
HEK-293T; 12 h, replicate number 1
  Growth Rate: 0.62
HEK-293T; 12 h, replicate number 2
  Growth Rate: 0.47
HEK-293T; 18 h, replicate number 1
  Growth Rate: 0.78
HEK-293T; 24 h, replicate number 1
  Growth Rate: 0.93
Fibroblast; 0 h, replicate number 2
  Growth Rate: -0.79
U2OS; 0 h, replicate number 2
  Growth Rate: -0.52
U2OS; 6 h, replicate number 2
  Growth Rate: 0.44
U2OS; 12 h, replicate number 2
  Growth Rate: 0.47
U2OS; 18 h, replicate number 2
  Growth Rate: 0.79
U2OS; 24 h, replicate number 1
  Growth Rate: 0.83
U2OS; 24 h, replicate number 2
  Growth Rate: 0.98

## CC(C)S(=O)(=O)c1ccccc1Nc1nc(N[C@@H]2CCCN(CCCCCCCNC(=O)COc3cccc4c3C(=O)N(C3CCC(=O)N(C)C3=O)C4=O)C2)ncc1Cl (stereo partly specified)
HEK-293T; 0 h, replicate number 1
  Growth Rate: -1
HEK-293T; 0 h, replicate number 2
  Growth Rate: -0.99
HEK-293T; 6 h, replicate number 1
  Growth Rate: -0.52
HEK-293T; 6 h, replicate number 2
  Growth Rate: -0.7
HEK-293T; 12 h, replicate number 1
  Growth Rate: -0.4
HEK-293T; 12 h, replicate number 2
  Growth Rate: -0.61
HEK-293T; 18 h, replicate number 1
  Growth Rate: -0.33
HEK-293T; 18 h, replicate number 2
  Growth Rate: -0.5
HEK-293T; 24 h, replicate number 1
  Growth Rate: -0.27
HEK-293T; 24 h, replicate number 2
  Growth Rate: -0.39
Fibroblast; 0 h, replicate number 1
  Growth Rate: -1
Fibroblast; 6 h, replicate number 1
  Growth Rate: 0.41
Fibroblast; 6 h, replicate number 2
  Growth Rate: 0.48
Fibroblast; 12 h, replicate number 1
  Growth Rate: -0.14
Fibroblast; 12 h, replicate number 2
  Growth Rate: -0.21
Fibroblast; 18 h, replicate number 1
  Growth Rate: -0.33
Fibroblast; 18 h, replicate number 2
  Growth Rate: -0.36
Fibroblast; 24 h, replicate number 1
  Growth Rate: -0.23
Fibroblast; 24 h, replicate number 2
  Growth Rate: -0.36
U2OS; 0 h, replicate number 1
  Growth Rate: -1
U2OS; 6 h, replicate number 1
  Growth Rate: 0.42
U2OS; 6 h, replicate number 2
  Growth Rate: 0.49
U2OS; 12 h, replicate number 1
  Growth Rate: 0.11
U2OS; 12 h, replicate number 2
  Growth Rate: 0.08
U2OS; 18 h, replicate number 1
  Growth Rate: -0.06
U2OS; 18 h, replicate number 2
  Growth Rate: -0.14
U2OS; 24 h, replicate number 1
  Growth Rate: -0.24
U2OS; 24 h, replicate number 2
  Growth Rate: -0.2
